Values joined by “and” are separate entries in the source; they are usually repeats but may differ in a detail not shown here. Equal values may be shown once. “Also recorded” adds a separate entry of the source. Numbered stars: 1 amine (or outer) side, 2 acyl side, 3 side chain; on linkers, the order of the positions; unused ones are H or OH. Bridge positions count the residues as written; N and C are the ends. Square brackets hold non-standard residues; d marks the D form. Peptide text beside a SMILES is read from it. Acbc(cis-1,3) = O=C([C@H]1C[C@@H](N[*:1])C1)[*:2]; X1 = O=C([C@@H]1CC[C@H](N[*:1])C1)[*:2]
Legend:
[1] = human serum (Cosmo Bio, 12181201); details: 37 °C, up to 100 h
[2] = system: recombinant SARS-CoV-2 M^pro; assay: M^pro 6 mg ml^–1 in 20 mM HEPES (pH 7.5) and 50 mM NaCl, co-crystallization with GM4; details: SARS-CoV-2, room temperature, crystals grown at 20 °C, up to one week
[3] = target: T1, SARS-CoV-2 M^pro (Severe acute respiratory syndrome coronavirus 2, UniProt P0DTD1); assay: biochemical; format: binding; details: for kon: read-out: ka (kinetic association)
[4] = Serum stability assay in human serum (LC/MS)
[5] = target: T1, SARS-CoV-2 M^pro; assay: biochemical; format: biochemical
[6] = read-out: EC50 (antiviral activity in cells); cited from earlier work
[7] = system: Vero E6 cells; design: method as in PMID 33786375; details: read-out: CC50 (half-maximal cytotoxic concentration); cited from earlier work
[8] = 37 °C, incubation time 0.5 h, relative to 0 h = 100%, technical replicates, 30 min
[9] = 37 °C, incubation time 1 h, relative to 0 h = 100%, technical replicates, 60 min
[10] = 37 °C, incubation time 2 h, relative to 0 h = 100%, technical replicates, 120 min
[11] = 37 °C, incubation time 4 h, relative to 0 h = 100%, technical replicates, 240 min
[12] = 37 °C, incubation time 8 h, relative to 0 h = 100%, technical replicates, 480 min
[13] = human, Remaining peptide (%), 37 °C, incubation time 0.5 h, relative to 0 h = 100%, technical replicates
[14] = human, Remaining peptide (%), 37 °C, incubation time 1 h, relative to 0 h = 100%, technical replicates
[15] = human, Remaining peptide (%), 37 °C, incubation time 2 h, relative to 0 h = 100%, technical replicates
[16] = human, Remaining peptide (%), 37 °C, incubation time 4 h, relative to 0 h = 100%, technical replicates
[17] = human, Remaining peptide (%), 37 °C, incubation time 8 h, relative to 0 h = 100%, technical replicates
[18] = human, Remaining peptide (%), 37 °C, incubation time 24 h, relative to 0 h = 100%, technical replicates
[19] = 37 °C, incubation time 24 h, relative to 0 h = 100%, technical replicates, 1440 min
[20] = 37 °C, incubation time 50 h, relative to 0 h = 100%, technical replicates, 3000 min
[21] = human, Remaining peptide (%), 37 °C, incubation time 50 h, relative to 0 h = 100%, technical replicates
[22] = 37 °C, incubation time 100 h, relative to 0 h = 100%, technical replicates, 6000 min

| Compound | Kd [3] | kd (kinetic dissociation) [3] | kon [3] | Remaining peptide (%) [4, 9] | Remaining peptide (%) [4, 10] | Remaining peptide (%) [4, 11] | Remaining peptide (%) [4, 12] | half-life at 10 μM ([4]; human) | remaining at 1 h, 10 μM [4, 14] | remaining at 2 h, 10 μM [4, 15] | remaining at 4 h, 10 μM [4, 16] | remaining at 8 h, 10 μM [4, 17] | remaining at 24 h, 10 μM [4, 18] | IC50 [5] | inhibition at 2.75 µM [5] | Remaining peptide (%) [4, 19] | Remaining peptide (%) [4, 20] | remaining at 50 h, 10 μM [4, 21] | further results |
| --- | --- | --- | --- | --- | --- | --- | --- | --- | --- | --- | --- | --- | --- | --- | --- | --- | --- | --- | --- |
| ^AcyFHγ^1LNLGYRPGc-NH2 ({CH2CO}-[dY]FH[Acbc(cis-1,3)]LNLGYRPG[dC]-NH2; thioether N-13) |  |  |  |  |  |  |  |  |  |  |  |  |  |  |  |  |  |  | cleaved bond [1]: L5-N6, 24 h; also recorded: N6-L7, 24 h; also recorded: R10-P11, 24 h; also recorded: P11-G12, 24 h; also recorded: G12-c13, 24 h; not cleaved [2]: complete intact peptide in the active site pocket |
| CC(C)C[C@@H]1NC(=O)[C@@H](Cc2ccc(O)cc2)NC(=O)CSC[C@H](C(N)=O)NC(=O)[C@H](C)NC(=O)[C@H](C)NC(=O)[C@H](Cc2ccc(O)cc2)NC(=O)[C@H](CCCNC(=N)N)NC(=O)[C@H](Cc2ccc(O)cc2)NC(=O)[C@@H]2CC[C@@H](C2)NC(=O)[C@H](CO)NC(=O)[C@H](Cc2ccc(O)cc2)NC(=O)[C@H]([C@@H](C)O)NC(=O)[C@H](CO)NC(=O)[C@H](C)NC(=O)[C@H](Cc2ccc(O)cc2)NC(=O)[C@H](Cc2c[nH]cn2)NC1=O [GM3] ({CH2CO}-[dY]LHYASTYS[X1]YRYAA[dC]-NH2; thioether N-16) | 62 nM | 13 10^-3 s^-1 | 200000 M⁻¹ s⁻¹ | 71.95% and 68.98% | 55.38% and 55.49% | 43.40% and 39.26% | 15.43% and 15.99% | 2.5 h | 60.8% | 48.5% | 45.6% | 15.7% | 0% | 2060 nM | 66.3% |  |  |  | Remaining peptide (%) [4, 8]: 72.71% and 73.43%; remaining at 0.5 h, 10 μM [4, 13]: 67.7% |
| CC(C)C[C@@H]1NC(=O)[C@H]([C@@H](C)O)NC(=O)[C@H](Cc2ccc(O)cc2)NC(=O)[C@H]([C@@H](C)O)NC(=O)[C@H](Cc2c[nH]cn2)NC(=O)[C@@H]2CCCN2C(=O)[C@@H]2CCCN2C(=O)[C@H](Cc2ccccc2)NC(=O)[C@H](C)NC(=O)[C@H](Cc2c[nH]cn2)NC(=O)[C@H](Cc2ccccc2)NC(=O)[C@@H](Cc2ccc(O)cc2)NC(=O)CSC[C@H](C(N)=O)NC1=O [GM1γ^14A] ({CH2CO}-[dY]FHAFPPHTYTL[dC]-NH2; thioether N-13) | 10 nM | 3.2 10^-3 s^-1 | 320000 M⁻¹ s⁻¹ | 87.05% and 85.28% | 71.54% and 71.96% | 65.45% and 64.12% | 51.43% and 52.89% | 8.3 h | 84.3% | 70.6% | 63.2% | 56.1% | 26.4% | > 5000 nM |  | 25.58% and 25.19% | 4.30% and 4.38% | 4.46% | fold change in binding affinity relative to the original peptide [3]: fourfold weaker; inhibition of M^pro (in words) [5]: inhibition was ablated |
| Cn1cnc(Cn2c(=O)[nH]/c(=N\c3cc4cn(C)nc4cc3Cl)n(Cc3cc(F)c(F)cc3F)c2=O)n1 [S-217622] |  |  |  |  |  |  |  |  |  |  |  |  |  |  |  |  |  |  | EC50 [6]: 370 nM |
| O=c1[nH]cc(-c2cc(-c3cc(Cl)c(F)c(OCc4ccccc4Cl)c3)c(=O)n(-c3cccnc3)c2)c(=O)[nH]1 [compound 23] |  |  |  |  |  |  |  |  |  |  |  |  |  |  |  |  |  |  | CC50 [7]: 1150 nM |
| CC(C)C[C@@H]1NC(=O)[C@H](C)NC(=O)[C@H](Cc2c[nH]cn2)NC(=O)[C@H](Cc2ccccc2)NC(=O)[C@@H](Cc2ccc(O)cc2)NC(=O)CSC[C@H](C(N)=O)NC(=O)CNC(=O)[C@@H]2CCCN2C(=O)[C@H](CCCNC(=N)N)NC(=O)[C@H](Cc2ccc(O)cc2)NC(=O)CNC(=O)[C@H](CC(C)C)NC(=O)[C@H](CC(N)=O)NC1=O [GM4γ^14A] ({CH2CO}-[dY]FHALNLGYRPG[dC]-NH2; thioether N-13) | 2.4 nM | 2.6 10^-3 s^-1 | 1.1e+06 M⁻¹ s⁻¹ | 80.98% and 76.08% | 68.35% and 66.59% | 75.33% and 71.01% | 60.41% and 56.42% | 11 h | 74.2% | 67.6% | 66.7% | 53.6% | 32.3% | 10 nM |  | 37.15% and 33.37% | 12.36% and 12.37% | 12.3% | Remaining peptide (%) [4, 22]: 2.74% and 5.40% and 2.53%; inhibition at 0.209 µM [5]: 100%; inhibition at 1.86 µM [5]: 100%; inhibition at 5.62 µM [5]: 100%; inhibition at 16.6 µM [5]: 100%; inhibition at 50.1 µM [5]: 100%; inhibition at […] [5]: 100% |
| ^AcyFHA LNLGYRPGc-NH2 ({CH2CO}-[dY]FHALNLGYRPG[dC]-NH2; thioether N-13) |  |  |  |  |  |  |  |  |  |  |  |  |  |  |  |  |  |  | cleaved bond [1]: F2-H3, 24 h; also recorded: L5-N6, 24 h; also recorded: P11-G12, 24 h; also recorded: G12-c13, 24 h |
| CC(C)C[C@@H]1NC(=O)[C@@H](Cc2ccc(O)cc2)NC(=O)CSC[C@H](C(N)=O)NC(=O)[C@H](C)NC(=O)[C@H](C)NC(=O)[C@H](Cc2ccc(O)cc2)NC(=O)[C@H](CCCNC(=N)N)NC(=O)[C@H](Cc2ccc(O)cc2)NC(=O)[C@H](C)NC(=O)[C@H](CO)NC(=O)[C@H](Cc2ccc(O)cc2)NC(=O)[C@H]([C@@H](C)O)NC(=O)[C@H](CO)NC(=O)[C@H](C)NC(=O)[C@H](Cc2ccc(O)cc2)NC(=O)[C@H](Cc2c[nH]cn2)NC1=O [GM3γ^210A] ({CH2CO}-[dY]LHYASTYSAYRYAA[dC]-NH2; thioether N-16) | 7.5 nM | 2.1 10^-3 s^-1 | 280000 M⁻¹ s⁻¹ | 35.60% and 33.84% | 15.90% and 15.53% | 6.44% and 7.19% | 2.01% | 0.59 h | 33.1% | 17% | 7.23% | 2.04% | 0% | 120 nM | 100% |  |  |  | fold change in binding affinity relative to the original peptide [3]: eightfold stronger; Remaining peptide (%) [4, 8]: 47.41% and 46.64%; remaining at 0.5 h, 10 μM [4, 13]: 44.4%; inhibition at 0.309 µM [5]: 77.9%; inhibition at 0.933 µM [5]: 95.6%; inhibition at 8.32 µM [5]: 100% |
| CC(C)C[C@@H]1NC(=O)[C@H]([C@@H](C)O)NC(=O)[C@H](Cc2ccc(O)cc2)NC(=O)[C@H]([C@@H](C)O)NC(=O)[C@H](Cc2c[nH]cn2)NC(=O)[C@@H]2CCCN2C(=O)[C@@H]2CCCN2C(=O)[C@H](Cc2ccccc2)NC(=O)[C@H]2C[C@H](C2)NC(=O)[C@H](Cc2c[nH]cn2)NC(=O)[C@H](Cc2ccccc2)NC(=O)[C@@H](Cc2ccc(O)cc2)NC(=O)CSC[C@H](C(N)=O)NC1=O [GM1] ({CH2CO}-[dY]FH[Acbc(cis-1,3)]FPPHTYTL[dC]-NH2; thioether N-13) | 2.3 nM | 0.94 10^-3 s^-1 | 410000 M⁻¹ s⁻¹ | 111.08% and 111.88% |  | 108.25% and 114.45% | 111.46% and 107.42% | 90 h | 111% |  | 115% | 116% | 77.3% | 40 nM | 100% | 74.66% and 74.47% | 63.33% and 64.88% | 67.1% | Remaining peptide (%) [4, 22]: 44.95% and 47.73%; remaining at 100 h, 10 μM ([4]; human, Remaining peptide (%), 37 °C, incubation time 100 h, relative to 0 h = 100%, technical replicates): 49%; inhibition at 0.000141 µM [5]: 4.71%; inhibition at 0.0347 µM [5]: 43.7%; inhibition at 0.102 µM [5]: 75.5%; inhibition at 0.309 µM [5]: 93.7%; inhibition at 0.933 µM [5]: 100%; inhibition at 8.32 µM [5]: 100% |

— paper PMC10322702 (Nature Chemistry, 2023)
